Results from patent US20250333702A1, “CELLS WITH INCREASED IMMUNO-REGULATORY PROPERTIES AND METHODS FOR THEIR USE AND MANUFACTURE” (The Children's Medical Center Corporation, priority 2015, published 2025).
Counter-ions that a name gives are not always drawn.

Columns and labels:
Type in all cases: cell-based
IDO-1 = IDO-1 mRNA level (RT-qPCR) in CD34+ cells after ex vivo treatment with agent; details: mRNA by RT-qPCR, normalized against untreated cells; human CD34+ cells, 24 hours at 37° C.
Procedure: (§1) Human CD34+ stem and progenitor cells isolated from mobilized peripheral blood from three donors were ex vivo treated in […]® (StemCell Technologies) for 24 hours at 37° C. with one or more exogenous agents. Following cell treatments, gross mRNA levels were normalized against gross mRNA levels from the untreated cells […]. Levels of PD-L1 or IDO-1 mRNA were quantified from PICOPURE® isolated mRNA (Life Technologies) using an Assay on Demand TAQMAN® RT-qPCR assay (Life Technologies).

[1] = tested on: Human CD34+ stem and progenitor cells; assay: Viability of CD34+ cells after ex vivo treatment with agent; parameters: concentration or dose not given beside the values; details: human CD34+ cells from mobilized peripheral blood, 24 hours at 37° C. with agent
PD-L1 (CD274) = assay: PD-L1 mRNA level (RT-qPCR) in CD34+ cells after ex vivo treatment with agent; details: mRNA by RT-qPCR, normalized against untreated cells; human CD34+ cells, 24 hours at 37° C.
Procedure: as §1

Row | Molecule | IDO-1 fold change (IDO-1) | % Viability ([1]; Table 2) | % Viability ([1]; Table 1) | PD-L1 fold change (PD-L1 (CD274))
1 | Nc1ccc(C(=O)O)c(O)c1 [4-aminosalicylic acid] | 4.07 fold | 85.3% |  | 
2 | C[C@H]1C[C@H]2[C@@H]3CCC4=CC(=O)C=C[C@]4(C)[C@@]3(F)[C@@H](O)C[C@]2(C)[C@@]1(O)C(=O)CO [Betamethasone] |  |  | 86.8% | 4.16 fold
3 | CCC(=O)O[C@]1(C(=O)CCl)[C@@H](C)C[C@H]2[C@@H]3CCC4=CC(=O)C=C[C@]4(C)[C@@]3(F)[C@@H](O)C[C@@]21C [Clobetasol propionate] |  |  | 83% | 9.27 fold
4 | C[C@@H]1C[C@H]2[C@@H]3C[C@H](F)C4=CC(=O)C=C[C@]4(C)[C@@]3(Cl)[C@@H](O)C[C@]2(C)[C@H]1C(=O)COC(=O)C(C)(C)C [Clocortolone pivalate] |  |  | 84.9% | 8.64 fold
5 | CN(C)CCC=C1c2ccccc2C=Cc2ccccc21 [Cyclobenzaprine] | 4.65 fold | 72.7% |  | 
6 | CN[C@@H]1[C@H](O[C@H]2[C@H](O[C@H]3[C@H](O)[C@@H](O)[C@H](NC(=N)N)[C@@H](O)[C@@H]3NC(=N)N)O[C@@H](C)[C@]2(O)CO)O[C@@H](CO)[C@H](O)[C@H]1O [Dihydrostreptomycin sulfate] | 6.19 fold | 84.5% |  | 
7 | Nc1nc(F)nc2c1ncn2[C@@H]1O[C@H](CO)[C@@H](O)[C@@H]1O [Fludarabine] | 4.22 fold | 82.5% |  | 
8 | CC1(C)O[C@@H]2C[C@H]3[C@@H]4C[C@H](F)C5=CC(=O)C=C[C@]5(C)[C@@]4(F)[C@@H](O)C[C@]3(C)[C@]2(C(=O)CO)O1 [Fluocinolone acetonide] |  |  | 82.9% | 10.58 fold
9 | OCCN1CCN(CCCN2c3ccccc3Sc3ccc(C(F)(F)F)cc32)CC1 [Fluphenazine] | 14.19 fold | 86% | 86% | 7.58 fold
10 | Nc1ccn([C@@H]2O[C@H](CO)[C@@H](O)C2(F)F)c(=O)n1 [Gemcitabine] | 30.13 fold | 81.4% |  | 
11 | CNC(C)CCC=C(C)C.CNC(C)CCC=C(C)C.O=C(O)[C@@H](O)[C@H](O)[C@H](O)[C@@H](O)C(=O)O [Isometheptene mucate] | 6.98 fold | 83.7% |  | 
12 | N#Cc1ccc(C(c2ccc(C#N)cc2)n2cncn2)cc1 [Letrozole] | 4.38 fold | 81.3% |  | 
13 | NC(=O)N/N=C/c1ccc([N+](=O)[O-])o1 [Nitro fural] |  |  | 87.2% | 10.28 fold
14 | CNCCCC1c2ccccc2C=Cc2ccccc21 [Protriptyline] | 5.74 fold | 79.4% |  | 
15 | Cc1scc2c1N(C(=O)CN1CCN(C)CC1)c1ccccc1NC2=O [Telenzepine] | 4.82 fold | 88.9% |  | 
16 | C=CC(N)CCC(=O)O (stereo not drawn) [Vigabatrin] |  |  | 67% | 16.76 fold
17 | Tyrphostin AG 835 |  |  | 61.3% | 32.57 fold
